For the experiment, the system named is L1210 leukemia ip in BDF1 mice, survival T/C. Nature of the experiment: NCI In Vivo Anticancer Drug Screen. Data for tumor model L1210 Leukemia (intraperitoneal) in B6D2F1 (BDF1) mice. Conditions: endpoint: mean survival time, higher = longer survival. The procedure, abridged: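 In this screen, tumor-bearing mice given compound are compared to those given vehicle, and their survival values are reported as a treated-to-control quotient.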

[1] abbreviates: dose: 100.0 mg/kg/injection, schedule: Q01DX001 (ip), vehicle: carboxymethylcellulose (CMC).
[2] abbreviates: dose: 200.0 mg/kg/injection, schedule: Q01DX001 (ip), vehicle: carboxymethylcellulose (CMC).
Setting [3] is: dose: 400.0 mg/kg/injection, schedule: Q01DX001 (ip), vehicle: carboxymethylcellulose (CMC).
The mark [4] stands for this setting: dose: 100.0 mg/kg/injection, schedule: Q04DX003 (ip), vehicle: saline with Tween-80.
Setting [5] is: dose: 200.0 mg/kg/injection, schedule: Q04DX003 (ip), vehicle: saline with Tween-80.
Setting [6] is: dose: 400.0 mg/kg/injection, schedule: Q04DX003 (ip), vehicle: saline with Tween-80.
The mark [7] stands for this setting: dose: 50.0 mg/kg/injection, schedule: Q01DX001 (ip), vehicle: saline.
The mark [8] stands for this setting: dose: 100.0 mg/kg/injection, schedule: Q01DX001 (ip), vehicle: saline.
[9] abbreviates: dose: 200.0 mg/kg/injection, schedule: Q01DX001 (ip), vehicle: saline.
[10] abbreviates: dose: 100.0 mg/kg/injection, schedule: Q01DX009 (ip), vehicle: Klucel (hydroxypropylcellulose) (HPC).
Where [11] appears, read: dose: 200.0 mg/kg/injection, schedule: Q01DX009 (ip), vehicle: Klucel (hydroxypropylcellulose) (HPC).
Setting [12] is: dose: 400.0 mg/kg/injection, schedule: Q01DX009 (ip), vehicle: Klucel (hydroxypropylcellulose) (HPC).
Setting [13] is: dose: 100.0 mg/kg/injection, schedule: Q04DX002 (ip), vehicle: saline with Tween-80.
[14] abbreviates: dose: 200.0 mg/kg/injection, schedule: Q04DX002 (ip), vehicle: saline with Tween-80.
[15] abbreviates: dose: 400.0 mg/kg/injection, schedule: Q04DX002 (ip), vehicle: saline with Tween-80.

Values joined by “and” are separate entries in the source; they are usually repeats but may differ in a detail not shown here. Identical values can stand only once. Toxic doses and inconclusive results are not listed.

As for `Fc1ccc(CSc2ncnc3c2ncn3C2CCCCO2)cc1` (stereo not drawn), the T/C by setting is: (dose: 3.0 mg/kg/injection, schedule: Q01DX015 (ip), vehicle: carboxymethylcellulose (CMC)) 97 % of control; (dose: 6.0 mg/kg/injection, schedule: Q01DX015 (ip), vehicle: carboxymethylcellulose (CMC)) 97 % of control; (dose: 12.0 mg/kg/injection, schedule: Q01DX015 (ip), vehicle: carboxymethylcellulose (CMC)) 98 % of control; (dose: 25.0 mg/kg/injection, schedule: Q01DX015 (ip), vehicle: carboxymethylcellulose (CMC)) 102 % of control; (dose: 50.0 mg/kg/injection, schedule: Q01DX015 (ip), vehicle: carboxymethylcellulose (CMC)) 101 % of control; under setting [1], 96 % of control. Also, the T/C was 103 % of control (dose: 100.0 mg/kg/injection, schedule: Q01DX015 (ip), vehicle: carboxymethylcellulose (CMC)); 96 % of control under setting [2]; 119 % of control (dose: 200.0 mg/kg/injection, schedule: Q01DX015 (ip), vehicle: carboxymethylcellulose (CMC)); 102 % of control under setting [3]; 166 % of control (dose: 400.0 mg/kg/injection, schedule: Q01DX015 (ip), vehicle: carboxymethylcellulose (CMC)); 102 % of control (dose: 800.0 mg/kg/injection, schedule: Q01DX001 (ip), vehicle: carboxymethylcellulose (CMC)). For the same molecule, the T/C (dose: 1600.0 mg/kg/injection, schedule: Q01DX001 (ip), vehicle: carboxymethylcellulose (CMC)) was 112 % of control.
In the case of `O=C(Nc1ccccc1Cl)OCC#CCOC(=O)Nc1ccccc1Cl`, the T/C under setting [4] is 102 % of control, the T/C under setting [5] is 93 % of control and the T/C under setting [6] is 91 % of control.
Regarding `CCC[CH2][Sn]([CH2]CCC)([n]1cncn1)[n]1cncn1`, the T/C runs as follows: (dose: 3.13 mg/kg/injection, schedule: Q04DX003 (ip), vehicle: saline with Tween-80) 101 % of control; (dose: 6.25 mg/kg/injection, schedule: Q04DX002 (ip), vehicle: saline with Tween-80) 104 % of control; (dose: 6.25 mg/kg/injection, schedule: Q04DX003 (ip), vehicle: saline with Tween-80) 101 % of control; (dose: 12.5 mg/kg/injection, schedule: Q04DX002 (ip), vehicle: saline with Tween-80) 104 % of control; (dose: 12.5 mg/kg/injection, schedule: Q04DX003 (ip), vehicle: saline with Tween-80) 95 % of control; (dose: 25.0 mg/kg/injection, schedule: Q04DX002 (ip), vehicle: saline with Tween-80) 93 % of control.
As to `O=C(O)C(Oc1ccc(Cl)cc1Cl)C(Oc1ccc(Cl)cc1Cl)C(=O)O` (stereo not drawn), the T/C was 98 % of control (dose: 100.0 mg/kg/injection, schedule: Q04DX002 (ip), vehicle: carboxymethylcellulose (CMC)); 88 % of control (dose: 200.0 mg/kg/injection, schedule: Q04DX002 (ip), vehicle: carboxymethylcellulose (CMC)); 155 % of control (dose: 400.0 mg/kg/injection, schedule: Q04DX002 (ip), vehicle: Klucel (hydroxypropylcellulose) (HPC)); 92 % of control (dose: 400.0 mg/kg/injection, schedule: Q04DX002 (ip), vehicle: carboxymethylcellulose (CMC)); 98 % of control (dose: 800.0 mg/kg/injection, schedule: Q04DX002 (ip), vehicle: carboxymethylcellulose (CMC)).
With `CCC1C(=O)OCc2c1cc1n(c2=O)CCC1` (stereo not drawn), the T/C reads like this: (dose: 25.0 mg/kg/injection, schedule: Q01DX001 (ip), vehicle: saline) 113 % of control; under setting [7], 104 % of control; under setting [8], 104 % of control; under setting [9], 115 % of control.
`FC(F)(F)S.[Ag]`: the T/C (dose: 75.0 mg/kg/injection, schedule: Q01DX001 (ip), vehicle: saline) was 95 % of control and the T/C (dose: 150.0 mg/kg/injection, schedule: Q01DX001 (ip), vehicle: saline) is 95 % of control.
Take `Cc1ccc(Cl)cc1NC(=O)/C=C/c1ccccc1`: the T/C is 104 % of control under setting [10], 104 % of control under setting [11] and 102 % of control under setting [12].
As for `NC(Cc1ccccc1)C(=O)NCCCl` (stereo not drawn), the T/C reads like this: (dose: 10.0 mg/kg/injection, schedule: Q01DX Z (ip), vehicle: saline) 86 % of control; (dose: 30.0 mg/kg/injection, schedule: Q01DX Z (ip), vehicle: saline) 93 % of control; (dose: 300.0 mg/kg/injection, schedule: Q01DX Z (ip), vehicle: saline) 96 % of control.
In the case of `NC(=O)N/N=C1/CCSc2ccc3c(c21)CCCC3`, the T/C is 102 % of control (dose: 100.0 mg/kg/injection, schedule: Q01DX001 (ip), vehicle: Klucel (hydroxypropylcellulose) (HPC)); 106 % of control under setting [10]; 93 % of control (dose: 200.0 mg/kg/injection, schedule: Q01DX001 (ip), vehicle: Klucel (hydroxypropylcellulose) (HPC)); 104 % of control under setting [11]; 94 % of control (dose: 400.0 mg/kg/injection, schedule: Q01DX001 (ip), vehicle: Klucel (hydroxypropylcellulose) (HPC)); 101 % of control under setting [12].
As for `N#CCCc1ccc(O)cc1`, the T/C reads like this: (dose: 50.0 mg/kg/injection, schedule: Q01DX009 (ip), vehicle: gum acacia) 100 % of control; (dose: 100.0 mg/kg/injection, schedule: Q01DX009 (ip), vehicle: gum acacia) 107 % of control; (dose: 100.0 mg/kg/injection, schedule: Q04DX003 (ip), vehicle: gum acacia) 97 % of control; (dose: 200.0 mg/kg/injection, schedule: Q01DX009 (ip), vehicle: gum acacia) 93 % of control; (dose: 200.0 mg/kg/injection, schedule: Q04DX003 (ip), vehicle: gum acacia) 97 % of control.
For the molecule `O=C(c1ccccc1[N+](=O)[O-])C(Br)C(Br)c1cccc2ccccc12` (stereo not drawn), the T/C is 96 % of control and 91 % of control (dose: 50.0 mg/kg/injection, schedule: Q01DX009 (ip), vehicle: saline with Tween-80); 96 % of control (dose: 100.0 mg/kg/injection, schedule: Q01DX001 (ip), vehicle: saline with Tween-80); 93 % of control and 94 % of control (dose: 100.0 mg/kg/injection, schedule: Q01DX009 (ip), vehicle: saline with Tween-80); 93 % of control under setting [13]; 90 % of control under setting [4]; 96 % of control (dose: 200.0 mg/kg/injection, schedule: Q01DX001 (ip), vehicle: saline with Tween-80). For the same molecule, the T/C is, setting by setting: (dose: 200.0 mg/kg/injection, schedule: Q01DX009 (ip), vehicle: saline with Tween-80) 86 % of control and 89 % of control; under setting [14], 88 % of control and 90 % of control; under setting [5], 91 % of control; (dose: 400.0 mg/kg/injection, schedule: Q01DX001 (ip), vehicle: saline with Tween-80) 100 % of control; under setting [6], 88 % of control.
For `NC(=O)c1c(/N=C/c2cc(Cl)cc(Cl)c2O)sc2c1CCCC2`, the T/C is 96 % of control under setting [13], 93 % of control under setting [14] and 96 % of control under setting [15].
On to `NNc1n[nH]c(=S)n1N`, for which the T/C is 90 % of control (dose: 25.0 mg/kg/injection, schedule: Q04DX003 (ip), vehicle: saline) and 97 % of control (dose: 100.0 mg/kg/injection, schedule: Q04DX003 (ip), vehicle: saline).
In the case of `Nc1ccc(Cl)cc1`, the T/C reads like this: under setting [1], 98 % of control; under setting [2], 101 % of control; under setting [3], 110 % of control.
`CCCCCCCCCCCCNc1ccc(S(=O)(=O)c2ccc(N)cc2)cc1`: the T/C is, setting by setting: under setting [13], 100 % of control; under setting [14], 97 % of control; under setting [15], 103 % of control.
Consider `COc1cc(OC)c2c(=O)c(O)c(-c3ccc(OC)c(OC)c3)oc2c1`, for which the T/C runs as follows: under setting [7], 91 % of control; under setting [8], 98 % of control; under setting [9], 98 % of control; (dose: 400.0 mg/kg/injection, schedule: Q01DX001 (ip), vehicle: saline) 96 % of control.
Take `COC(=O)C(C)CSCc1ccccc1` (stereo not drawn): the T/C runs as follows: (dose: 100.0 mg/kg/injection, schedule: Q04DX002 (ip), vehicle: saline) 108 % of control; (dose: 400.0 mg/kg/injection, schedule: Q04DX002 (ip), vehicle: saline) 89 % of control.
